Data on 2 compounds can be found in US10730857B2, “Benzocyanine compounds” (Pierce Biotechnology, Inc., priority 2011, dated 2020).

The test system of data set [1] is rabbit IgG immunoglobulin. Kind of data set: Plate functional assay of dye-GAR conjugates. Type of data set: binding. Conditions: for quenching at 1000 ng/well at 25× (in words): FIG. 14 summary Raw Fluorescence Intensity. The method, then:
Performance of the dye-GAM conjugates, dye-GAR conjugates, and dye-SA conjugates was evaluated in a functional assay. Wells of a 96 white opaque plate or black clear-bottom plate were coated with target proteins mouse IgG immunoglobulin, rabbit IgG immunoglobulin, or biotinylated bovine serum albumin (BBSA). One hundred μl mouse or rabbit IgG, or BBSA at a concentration of 10 μg/ml was applied to the corresponding wells in columns 1 and 2. The target proteins were serially diluted 1:1 from the wells in columns 2 to 11 using 100 μl PBS. One hundred μl of the samples from the wells in column 11 were discarded. One hundred μl PBS was added to the wells in column 12. The plates were incubated overnight at 4° C. and then blocked 2×200 μl with Thermo Scientific SuperBlock® Blocking Buffer. The coated plates were washed 2×200 μl with PBS-Tween and 1×200 μl with PBS. Based on the calculated concentrations, conjugates were diluted 1:250 in PBS, added to the corresponding plates (100 μl/well) and then incubated for one hour in the dark. The plates were washed with 2×200 μl with PBS-Tween and 1×200 μl with PBS and filled with PBS buffer (100 μl/well) prior to scanning the white opaque plates on Tecan Safire using 679 nmexcitation/702 nmemission or scanning the black clear-bottom plates on LiCor Odyssey at 700 channel, to detect fluorescence intensity.

The subject of a further data set is lamin A in U20S cells. Kind of data set: Immunofluorescence detection of lamin A in U20S cells (FIG. 20A-C and repeat). Type of data set: cell-based. The method, then:
In the indicated experiments, the inventive compounds and commercial dye were evaluated for immunofluorescence in a cell based assay using the following protocol. Frozen U20S cell plates which were stored at −80° C. were thawed for 45 minutes at 50° C. Storage buffer (PBS) was removed and the cells were permeabilized for 15 minutes with 0.1% Triton-X100 in 1×PBS buffer (100 μl/well). The cell plate was blocked for 60 minutes in 2% BSA/PBS-0.1% Triton-X100. Primary antibody, either rat anti-Grp94 (5 μg/ml), mouse anti-lamin A (10 μg/ml), or rabbit anti-lamin B1 (10 μg/ml), diluted in 2% BSA/PBS-0.1% Triton-X100 was added to the plate and incubated for 1 hour at room temperature. Control wells contained only 2% BSA/PBS-0.1% Triton-X100 blocker. After incubation, the antibody solution was removed from the plate and the plate was washed three times with 100 μl/well of PBS-0.5% Tween-20 and one time with 100 μl/well PBS. GARat, GAM, or GAR secondary antibodies labeled with various molar excess of the inventive or commercial compound were diluted to 4 μg/ml in PBS and incubated for 1 hour at room temperature. The plates were washed three times with 100 μl/well of PBST and once with 100 μl/well PBS, and Hoechst (diluted to 0.1 μg/ml in PBS) was added to each well (100 μl/well). The plates were scanned on ArrayScan Plate Reader or ToxInsight Instrument.

The nature of data set [2]: In vivo imaging with dye-labeled anti-CEA antibody. Further details: species or system nu/nu mice. Conditions: dye conjugated to mouse anti-CEA antibody; i.v.; predicted results. The method, then: The inventive compounds are used for in vivo imaging as described in J. Gastrointest Surg (2008) 12:1938-1950. Briefly, human pancreatic cell lines are maintained in media supplemented with penicillin/streptomycin at 37° C. with 5% CO2. Mouse anti-CEA antibody and Control Mouse IgG (in PBS with 0.20% sodium azide) are conjugated to V08-15173. The dye is reconstituted at 10 mg/ml in DMF and then added to the antibody at a 10 molar excess. The reaction is carried out for one hour at room temperature. The samples are then dialyzed against 3×2 L of PBS. The cell lines are plated in 96-well plates at 5×10^4 cells per well. After 48 hours culture in appropriate media, the cells are incubated with 1 μg of V08-15173 labeled anti-CEA antibody or V08-15173-labeled control mouse IgG for four hours at 37° C. The cells are then washed three times with PBS and then imaged with an inverted Nikon De-485 microscope and Spot camera RD.
Surgical procedures and intravital imaging are performed with the animals anesthesized by intramuscular injection of 0.02 ml of 50% ketamine, 38% xylazine and 12 acepromazine maleate. Human pancreatic and colorectal cancer cell lines are harvested by trypsinization and washed twice with serum free medium […]. Cells (1×10^6 in 100 μl of serum-free media) are injected subcutaneously within 30 minutes of harvesting over the right flank in female nu/nu mice between 4-6 weeks of age. Subcutaneous tumors are allowed to grow for 7-14 days until they reached diameter of 1-2 mm prior to the delivery of conjugated antibody. For ASPC-1 implants, the cells are harvested by trypsinization and washed 3× in serum-free media. […]. The cells are resuspended in serum-free media at 5×10^6/ml. A volume of 200 μl of the cell suspension is then injected directly into the peritoneal cavity within 30 minutes of harvesting.
For antibody delivery, one to two weeks after subcutaneous, orthotopic, or intraperitoneal tumor implantation, animals are given intravenous (i.v.) injection of either conjugated anti-CEA or conjugated control IgG antibody diluted in PBS to a final volume of 100 μl. All i.v. injections are done via the tail vein. For the dose-response experiment, the antibody dose is 75 μg. For the in vivo time course, the animals are anesthesized and imaged at 30 min, 1, 2, 6, 24 hours and 8 and 15 days after systemic antibody delivery.
The inventive compounds are used for in vivo imaging as described in J. Gastrointest Surg (2008) 12:1938-1950. Briefly, human pancreatic cell lines are maintained in media supplemented with penicillin/streptomycin at 37° C. with 5% CO2. Mouse anti-CEA antibody and Control Mouse IgG (in PBS with 0.20% sodium azide) are conjugated to 779 Compound 1. […]

Data set [3] in a line: Absorbance/emission spectral properties and fluorescence intensity of the dyes. Format: physicochemical. Conditions: second property table of Example 6; NHS ester forms. As for the experimental part:
Emission/excitation profiles for inventive and commercial compounds was determined by reconstituting the compounds in DMF at 10 mg/ml and then diluting in PBS buffer pH 7.2 to 10 μg/ml.

Entries after “also recorded” stand apart in the source; their conditions may differ.

Consider `COCC[N+]1=C(/C=C/C=C/C=C2/N(CCCCCC(=O)O)c3ccc4c(S(=O)(=O)[O-])cc(S(=O)(=O)[O-])cc4c3C2(C)C)C(C)(CCCS(=O)(=O)[O-])c2c1ccc1c(S(=O)(=O)[O-])cc(S(=O)(=O)[O-])cc21.[Na+].[Na+].[Na+].[Na+]` (stereo not drawn) [679 Compound 1/1, 2-{(1E,3E)-5-[3-(5-Carboxypentyl)-1,1-dimethyl-6,8-disulfo-1,3-dihydro-benzo[e]indol-(2E)-ylidene]-penta-1,3-dienyl}-3-(2-methoxy-ethyl)-1-methyl-6,8-disulfo-1-(3-sulfopropyl)-1H-benzo[e]indolium], for which the “quenching at 1000 ng/well at 25× (in words)” value in data set [1] is listed as “apparent quenching”. The “Raw Fluorescence Intensity behaviour at 25× molar excess (in words)” value in data set [1] (LiCOR Odyssey, FIG. 12) is “saturating at 25×”. For the same compound, in the data set on lamin A in U20S cells (GAM conjugate 4 μg/ml, 2.5 X molar excess), the “Mean Total Intensity, Average, 2.5 X” value is 29229. Besides, the “Mean Total Intensity, Average, 5.0 X” value with lamin A in U20S cells (GAM conjugate 4 μg/ml, 5.0 X molar excess) was 49279. Further, the “Mean Total Intensity, Average, 7.5 X” value in the data set on lamin A in U20S cells (GAM conjugate 4 μg/ml, 7.5 X molar excess) came out at 28782. Moreover, the “Mean Total Intensity, Average, 10 X” value with lamin A in U20S cells (GAM conjugate 4 μg/ml, 10 X molar excess) was 30098. Moreover, the “Mean Total Intensity, Average, 15 X” value in the data set on lamin A in U20S cells (GAM conjugate 4 μg/ml, 15 X molar excess) turned out to be 48071. Further, the “Mean Total Intensity, Negative control, 2.5 X” value in the data set on lamin A in U20S cells (repeat experiment, no primary antibody, 2.5 X) turned out to be 8711. Further, the “Mean Total Intensity, Negative control, 5 X” value in the data set on lamin A in U20S cells (repeat experiment, no primary antibody, 5 X) came out at 8674. Further, in the data set on lamin A in U20S cells (repeat experiment, no primary antibody, 10 X), the “Mean Total Intensity, Negative control, 10 X” value amounted to 20481. Further, the “Mean Total Intensity, Negative control, 15 X” value with lamin A in U20S cells (repeat experiment, no primary antibody, 15 X) is 16277.

For the compound `COCCOCCOCCOCC[N+]1=C(/C=C/C=C/C=C2/N(CCOCCOCCOCCOCCC(=O)ON3C(=O)CCC3=O)c3ccc4c(S(=O)(=O)[O-])cc(S(=O)(=O)O)cc4c3C2(C)CCOCCOCCOCCOC)C(C)(CCOCCOCCOCCOC)c2c1ccc1c(S(=O)(=O)O)cc(S(=O)(=O)O)cc21` (stereo not drawn) [Compound V08-15173], in data set [2], the “Ex vivo analysis of the vital organs” value is “presence of dye predominantly in the liver with some signal detected in the spleen intestines and lungs”; the “post-experiment surgical exposure: accumulation of dye” value is “accumulation of dye in the liver, bladder, and a region of inflammation in the subcutaneous tissue”. In data set [1], the “quenching at 1000 ng/well at 25× (in words)” value was “no apparent quenching”. Besides, the “S/B 2.5 X” value in the data set with lamin A in U20S cells (GAM conjugate, 2.5 X molar excess) amounted to 2.9. For the same compound, the “S/B 5.0 X” value in the data set on lamin A in U20S cells (GAM conjugate, 5.0 X molar excess) is listed as 4.9. The “S/B 7.5 X” value with lamin A in U20S cells (GAM conjugate, 7.5 X molar excess) is 6.0. Further, the “S/B 10 X” value in the data set on lamin A in U20S cells (GAM conjugate, 10 X molar excess) is 4.9. Moreover, the “S/B 15 X” value with lamin A in U20S cells (GAM conjugate, 15 X molar excess) was found to be 4.6. Also, the “non-specific binding / specificity (in words)” value with lamin A in U20S cells (GAM conjugates, FIG. 20A-C) was “a minimal amount of non-specific binding; also recorded: little non-specific binding”. In the data set on lamin A in U20S cells (no primary antibody, 7.5 X molar excess), the “Mean Total Intensity, Negative control, 7.5 X” value is 7100. Further, the “S/B 2.5 X” value with lamin A in U20S cells (repeat experiment, 2.5 X molar excess) is recorded as 9.8. In data set [3], this compound returned an Em of 706 nm and an Ex of 684 nm.
